Laboratory results: patent EP0168309A1, “Isoxazoloquinolinone derivatives, process and intermediates for their preparation, use as medicaments and compositions containing them” (ROUSSEL-UCLAF, priority 1984, dated 1986)

Assays:
[1] = target: récepteurs des benzodiazépines; assay: Affinity for benzodiazepine receptors (3H diazepam binding, rat cortex membranes); design: species or system rats; details: concentration inhibiting 50 % of specific binding of 3H diazepam (10^-9M), 30 minutes at 0°C, read-out: C. I. 50 (the source's name)
Protocol: La technique est inspirée de celle de Möhler et Okada : Science, Vol 198 p.849-851 (1977).
On homogénéise au vingtième (poids/volume) dans le sucrose 0,32 M, les cortex prélevés sur des cerveaux de rats mâles pesant 150 g en moyenne. Après centrifugation de l'homogénat à 1000 g pendant 10 minutes à 0°C, le surnageant est centrifugé à 30 000 g pendant 20 minutes à 4°C. Le culot est mis en suspension dans 20 volumes de tampon Tris HCl 50mM pH 7,4 et centrigué à 30 000 g pendant 20 minutes à 4°C. Le nouveau culot obtenu est mis en suspension dans 50 ml de tampon Krebs Tris HCl pH 7,4.
On fait ensuite incuber pendant 30 minutes à 0°C, 2 ml de suspension en présence de 3H diazepam à la concentration 10^-9M : • i) seule, • ii) avec des concentrations croissantes du produit à tester ou, • iii) pour déterminer la fixation non spécifique, avec du diazepam non radioactif à la concentration 10^-6M.
Les suspensions incubées sont filtrées sur Whatman GF/C et les filtres sont lavés par deux fois 5 ml de tampon Krebs Tris HCl pH 7,4 à 0°C.
La radioactivité des filtres est mesurées par scintillation liquide.
L'activité du produit est exprimée en C. I. 50 : concentration inhibant 50 % de la liaison spécifique de ^3H diazepam.

souris = assay: Acute toxicity, oral administration in mice (DL0); type: in vivo; details: maximal dose causing no mortality in 8 days, mouse
From the text: On a évalué les doses létales DLO des différents composés testés après administration par voie orale chez la souris.
On appelle DLO la dose maximale ne provoquant aucune mortalité en 8 jours.

[2] = tested on: taux sérique de corticostérone; assay: Action on serum corticosterone level after noise stress; type: in vivo; details: Rattus norvegicus; dose reducing by 50% the increase of serum corticosterone; oral route, 1 hour before stress; rats; read-out: DE50 (the source's name)
From the text: Des lots de 5 rats sont constitués la veille de l'essai et placés dans un pièce au calme. Les composés sont administrés par voie orale le lendemain entre 8 et 9 heures du matin. Une heure après, le stress est appliqué : il consiste à changer les animaux de cage, à les placer dans une pièce où un poste de radio fonctionne bruyamment (90 décibels), puis 1/2 heure plus tard, à leur faire une piqûre intrapéritonéale sans injection. Dix minutes après celle-ci, les rats sont anesthésiés a l'halothane et des échantillons de sang sont prélevés par décapitation. Les taux de corticostérone sérique sont alors déterminés.
Les résultats sont exprimés en DE50, c'est-à-dire en dose de composé testé qui réduit de 50% l'augmentation du taux de corticostérone sérique chez les animaux traités par rapport aux animaux témoins.

| SMILES | IC50 [1] [µM] | DL0 (souris) [mg/kg] | ED50 [2] [mg/kg] |
| --- | --- | --- | --- |
| O=c1c2cnc3ccccc3c2on1-c1ccccc1 [Exemple 1, 2-phényl isoxazolo (4,5-c) quinoléin-3 (2H) one] | 0.12 | ≥ 400 |  |
| O=c1c2cnc3ccc(Cl)cc3c2on1-c1ccccc1 [Exemple 7, 8-chloro 2-phényl isoxazolo (4,5-c) quinoléin-3-(2H)-one] |  | ≥ 100 |  |
| O=c1c2cnc3ccc(C(F)(F)F)cc3c2on1-c1ccccc1 [Exemple 5, 8-trifluorométhyl 2-phényl isoxazolo (4,5-c) quinoléin-3-(2H)-one] |  | ≥ 200 |  |
| COc1ccc2c(c1)ncc1c(=O)n(-c3ccccc3)oc12 [Exemple 3, 7-méthoxy 2-phénylisoxazolo (4,5-c) quinoléin-3-(2H)-one] |  | ≥ 200 |  |
| COc1ccc2ncc3c(=O)n(-c4ccccc4)oc3c2c1 [Exemple 4, 8-méthoxy 2-phényl isoxazolo (4,5-c) quinoléin-3-(2H)-one] | 2.46 | 200 | < 100 |
| O=c1c2cnc3ccc(F)cc3c2on1-c1ccccc1 [Exemple 2, 8-fluoro 2-phénylisoxazolo (4,5-c) quinoléin-3-(2H)-one] | 0.4 | ≥ 400 | < 50 |
